Legend:
[1] = tested on: Canine-derived epithelial keratinocyte (CPEK) cells; format: cell-based
Procedure: Safety of the peptides listed in table 2 was determining by measuring cell viability. Canine-derived epithelial keratinocyte (CPEK) cells were propagated to determine cell viability in the presence of peptides. Cells were grown from a frozen stock in CnT-09-5 (with supplements) pre-warmed media in a T75 flask and incubated overnight at 37° C., 5% CO2. Cells were washed with phosphate buffer and replenished with pre-warmed CnT-05-9 media and repeated for several days until cells reached a density of 6.6×10^4 cells/mL. Cells were then transferred to a 384 well plate, allowed to settle and dosed with peptides and melittin control peptide (50 μM to 0.05 μM) and incubated overnight at 37° C., 5% CO2. 0.1% TritonX100 as (HPE) and phosphate buffer alone as (ZPE) were added to the plates to calculate percent effect once the assay was terminated with 10 μL CELLTITER-GLO® assay reagents for a luminescent readout.

[2] = tested on: MSSP (Methicillin-Susceptible Staphylococcus pseudintermedius); test: MIC against selected strains of MSSP; format: cell-based; parameters: MIC MSSP 49051 / MIC MSSP 81923 / MIC MSSP 84250 / Effect on MSSP 86000 / Effect on MSSP 72036 / Effect on MSSP 78032: unit not given beside the values; Effect on MSSP 71990 / Effect on MSSP 86001 / Effect on MSSP 72191 / Effect on MSSP 76986 / Effect on MSSP 77378 / Effect on MSSP 81923 / Effect on MSSP 84250 / Effect on MSSP 84658: unit: µM; conditions: for SP 49051: S. pseudintermedius 49051, Table 6; for Effect on MSSP 71990: strain 71990, Table 5; for Effect on MSSP 72036: strain 72036, Table 5; for Effect on MSSP 72191: strain 72191, Table 5; for Effect on MSSP 76986: strain 76986, Table 5; for Effect on MSSP 77378: strain 77378, Table 5; for Effect on MSSP 78032: strain 78032, Table 5; for Effect on MSSP 81923: strain 81923, Table 5; for Effect on MSSP 84250: strain 84250, Table 5; for Effect on MSSP 84658: strain 84658, Table 5; for Effect on MSSP 86000: strain 86000, Table 5; for Effect on MSSP 86001: strain 86001, Table 5
Procedure: (§1) Peptides according to SEQ ID NOs as listed in Table 1 were prepared by a commercial manufacturer (CS Bio, Menlo Park, Calif.) using solid phase synthesis. Antimicrobial activity was assessed by determining the Minimal Inhibitory Concentration (MIC) against S. aureus and E. coli. Briefly, Microbroth MICs were performed using CLSI methodology (VET01-S2). For S. aureus and E. coli ATCC strains, TSA with 5% lysed horse blood agar was used for overnight culturing at 37° C. ambient air. A 0.5 mM stock for each peptide was made with cell culture water, 0.01% acetic acid and serially diluted and spotted (10 μL) in a 96-well plate for in assay dose titration concentration of 50 μM to 0.05 μM. 0.5 McFarland Standard of each strain was diluted 1:250 in Mueller-Hinton Broth (MHB). 90 μL of culture suspension was then added upon drug in the 96-well plate for overnight incubation for 18-20 hours. The MIC was determined visually at the first well of no visible growth at the corresponding concentration.
(§2) Antimicrobial activity of the peptides listed in Table 2 against different strains of MSSP (Methicillin-Susceptible Staphylococcus pseudintermedius) and MRSP (Methicillin-Resistant Staphylococcus pseudintermedius) was further assessed. The results are in Tables 3 and 4, respectively.

[3] = tested on: MRSP (Methicillin-Resistant Staphylococcus pseudintermedius); test: MIC against selected strains of MRSP; format: cell-based; parameters: key to MIC MRSP 72192 / MIC MRSP 76923 / MR 71994 / Mr 88493 / MR 72035 / MR 72192 / MR 76923 / MR 79882 / MR 80279 / MR 81926 / MR 86002 / MR 87665: MIC in μM (visual, first well with no growth); conditions: for MR 71994: MRSP strain 71994, Table 6; for MR 72035: MRSP strain 72035, Table 6; for MR 72192: MRSP strain 72192, Table 6; for MR 76923: MRSP strain 76923, Table 6; for MR 79882: MRSP strain 79882, Table 6; for MR 80279: MRSP strain 80279, Table 6; for MR 81926: MRSP strain 81926, Table 6; for MR 86002: MRSP strain 86002, Table 6; for MR 87665: MRSP strain 87665, Table 6; for Mr 88493: MRSP strain 88493, Table 6
Procedure: as §1, §2

[4] = tested on: S. aureus ATCC 29213; format: cell-based; parameters: key to SA 29213: MIC in μM (lowest conc. with no visible growth); conditions: S. aureus 29213, Table 6
Procedure: as §1

[5] = tested on: cRBC; format: cell-based, canine
Procedure: SEQ ID NO: 1 was selected for further research. Toxicity of SEQ ID NO: 1 to eukaryotic blood cells was compared to that of tachyplesin (SEQ ID NO: 13). A standard, well referenced red blood cell hemolysis assay was employed against multiple species to test the lysis potential of the peptides. Red blood cells (RBCs) were prepared and isolated by several centrifuge and wash steps to remove the plasma fraction. A dose titration (50 μM to 0.05 μM) of test peptides and control peptide melittin were spotted from 50 mM stocks in a 384 well plate. Prepared RBCs were incubated with peptide for one hour at 37° C. Percent hemolysis was measured by optical density at 405 nm and utilizing 1% TritonX100 as hundred percent effect (HPE) and phosphate buffer alone as zero percent effect (ZPE).

[6] = tested on: E. coli ATCC 25922; format: cell-based; conditions: E. coli 25922, Table 6
Procedure: as §1

| Substance | CPEK (50 μM) [1] | SP 49051 [2] | Effect on MSSP 71990 [2] | Effect on MSSP 72036 [2] | Effect on MSSP 72191 [2] | Effect on MSSP 76986 [2] | Effect on MSSP 77378 [2] | Effect on MSSP 78032 [2] | Effect on MSSP 81923 [2] | Effect on MSSP 84250 [2] | Effect on MSSP 84658 [2] | Effect on MSSP 86000 [2] | Effect on MSSP 86001 [2] | MR 71994 [3] | MR 72035 [3] | MR 72192 [3] | MR 76923 [3] | MR 79882 [3] | MR 80279 [3] | MR 81926 [3] | also measured |
| --- | --- | --- | --- | --- | --- | --- | --- | --- | --- | --- | --- | --- | --- | --- | --- | --- | --- | --- | --- | --- | --- |
| 100 (KWCFWVCYRGICYRRCRD; Artificial Antimicrobial peptide) [compound 100] | 29.5 | 1.6 | 1.6 | 1.6 | 3.1 | 1.6 | 3.1 | 1.6 | 1.6 | 1.6 | 1.6 | 1.6 | 1.6 | 1.6 | 3.1 | 1.6 | 1.6 | 1.6 | 1.6 | 1.6 | MR 86002 [3]: 1.6; MR 87665 [3]: 1.6; Mr 88493 [3]: 3.1; SA 29213 [4]: 6.2; cRBC (50 μM) [5]: 100.0; EC 25922 [6]: 0.8 µM |
| 28 (PKWCFRVCYRGICYRRCR; Artificial Antimicrobial peptide) [compound 28] | 19.4 | 1.6 | 1.6 | 1.6 | 1.6 | 0.8 | 1.6 | 1.6 | 1.6 | 1.6 | 1.6 | 1.6 | 1.6 | 1.6 | 3.1 | 3.1 | 1.6 | 0.8 | 1.6 | 1.6 | MR 86002 [3]: 1.6; MR 87665 [3]: 1.6; Mr 88493 [3]: 1.6; SA 29213 [4]: 6.2; cRBC (50 μM) [5]: 94.4; EC 25922 [6]: 0.8 µM |
| 103 (KWCFRVCKRGICYRRCRD; Artificial Antimicrobial peptide) [compound 103] | −0.5 | 3.1 | 3.1 | 3.1 | 3.1 | 3.1 | 3.1 | 3.1 | 3.1 | 6.2 | 3.1 | 3.1 | 3.1 | 3.1 | 3.1 | 3.1 | 3.1 | 3.1 | 3.1 | 3.1 | MR 86002 [3]: 3.1; MR 87665 [3]: 3.1; Mr 88493 [3]: 3.1; SA 29213 [4]: 25; cRBC (50 μM) [5]: 7.9; EC 25922 [6]: 6.2 µM |
| 99 (KWCFFVCYRGICYRRCRD; Artificial Antimicrobial peptide) [compound 99] | 19.9 | 3.1 | 1.6 | 1.6 | 3.1 | 1.6 | 1.6 | 1.6 | 1.6 | 3.1 | 3.1 | 3.1 | 1.6 | 1.6 | 3.1 | 3.1 | 1.6 | 1.6 | 1.6 | 3.1 | MR 86002 [3]: 3.1; MR 87665 [3]: 1.6; Mr 88493 [3]: 1.6; SA 29213 [4]: 6.2; cRBC (50 μM) [5]: 100.0; EC 25922 [6]: 1.6 µM |
| 113 (KWCFRVCYRGICYRRCAD; Artificial Antimicrobial peptide) [compound 113] | 15.7 | 1.6 | 1.6 | 1.6 | 1.6 | 1.6 | 1.6 | 1.6 | 1.6 | 1.6 | 1.6 | 1.6 | 1.6 | 1.6 | 1.6 | 1.6 | 1.6 | 1.6 | 1.6 | 1.6 | MR 86002 [3]: 1.6; MR 87665 [3]: 1.6; Mr 88493 [3]: 1.6; SA 29213 [4]: 6.2; cRBC (50 μM) [5]: 86.3; EC 25922 [6]: 1.6 µM |
| 30 (PWCFRVCYRGICYRRCR; Artificial Antimicrobial peptide) [compound 30] | 17.0 | 1.6 | 0.8 | 0.8 | 1.6 | 0.8 | 0.8 | 0.8 | 0.8 | 0.8 | 1.6 | 1.6 | 1.6 | 1.6 | 0.8 | 0.8 | 0.8 | 0.8 | 0.8 | 1.6 | MR 86002 [3]: 1.6; MR 87665 [3]: 1.6; Mr 88493 [3]: 1.6; SA 29213 [4]: 3.1; cRBC (50 μM) [5]: 63.5; EC 25922 [6]: 1.6 µM |

From patent publication US11352396B2, “Antimicrobial peptides and methods of using same” (Zoetis Services LLC, priority 2017, dated 2022)
